Data reported in patent publication US20240016942A1, “STAT DEGRADERS AND USES THEREOF” (Kymera Therapeutics, Inc., priority 2020, published 2024).
Like-named read-outs stand apart in the source and are kept apart here.

Target: T1, STAT3 (Homo sapiens, UniProt P40763)
T1 construct: expressed in transfected cells; host or cells: A549
Assay: STAT3 HiBiT degradation assay (Nano-Glo HiBiT lytic detection) in transfected A549 cells
Assay type: cell-based
Protocol: Example 1. HiBiT Assay Protocol
Compound preparation and Cell seeding: The transfected A549 cells were harvested from dish into cell culture medium and cell numbers counted. Cells were diluted with culture medium to the desired density and 30 μL of cell suspension (about 2000 cells/well) were added into each well of a 384-well cell culture plate as designated and transferred into 37° C. 5% CO2 incubator for 24 h. Compounds were dissolved to 10 mM stock solution and 12 μL of the stock solution was transferred to a 384 LDV-plate. 3 fold, 10-point dilution was performed by transferring 4 μL compound into 8 μL DMSO using a TECAN (EVO200) liquid handler. 30 μl of diluted compound from compound source plate was transferred into the cell plate as designated by using Echo550 and transferred into 37° C. 5% CO2 incubator for 24 h.
Detection: Plates were removed from incubators and equilibrated at room temperature for 15 minutes. Nano-Glo Hibit Lytic Detection reagent (Promega Cat #N3040) was thawed and equilibrated to room temperature before the experiment. 30 μL of Nano-Glo Hibit Lytic Detection reagent was added into each well to be detected. The plates were held at room temperature for 10 min followed by reading on EnSpire.
Data analysis: The remaining activity was calculated following the formula: Remaining Activity (%)=100%×(Lumsample−LumNC)/(LumPC−LumNC). Calculate the IC50 by fitting the curve using Xlfit (v5.3.1.3), equation 201: fit=(A+((B−A)/(1+((x/C)^D)))); A: Botton; B: Top; C: IC50; and D: Slope.
The letter codes for STAT3 DC50 include: A (<0.01 μM), B (0.01-0.1 μM), C (0.1-1.0 μM), and D (>1.0 μM).

[1] = 24 h compound incubation, read-out: STAT3 HiBIT A549 degradation 24 h: Average external-Abs DC50
[2] = read-out: STAT3 HiBIT A549 degradation 24 h: Average external-Abs DC50, 24 h compound incubation

T1 sequence (P40763 whole entry): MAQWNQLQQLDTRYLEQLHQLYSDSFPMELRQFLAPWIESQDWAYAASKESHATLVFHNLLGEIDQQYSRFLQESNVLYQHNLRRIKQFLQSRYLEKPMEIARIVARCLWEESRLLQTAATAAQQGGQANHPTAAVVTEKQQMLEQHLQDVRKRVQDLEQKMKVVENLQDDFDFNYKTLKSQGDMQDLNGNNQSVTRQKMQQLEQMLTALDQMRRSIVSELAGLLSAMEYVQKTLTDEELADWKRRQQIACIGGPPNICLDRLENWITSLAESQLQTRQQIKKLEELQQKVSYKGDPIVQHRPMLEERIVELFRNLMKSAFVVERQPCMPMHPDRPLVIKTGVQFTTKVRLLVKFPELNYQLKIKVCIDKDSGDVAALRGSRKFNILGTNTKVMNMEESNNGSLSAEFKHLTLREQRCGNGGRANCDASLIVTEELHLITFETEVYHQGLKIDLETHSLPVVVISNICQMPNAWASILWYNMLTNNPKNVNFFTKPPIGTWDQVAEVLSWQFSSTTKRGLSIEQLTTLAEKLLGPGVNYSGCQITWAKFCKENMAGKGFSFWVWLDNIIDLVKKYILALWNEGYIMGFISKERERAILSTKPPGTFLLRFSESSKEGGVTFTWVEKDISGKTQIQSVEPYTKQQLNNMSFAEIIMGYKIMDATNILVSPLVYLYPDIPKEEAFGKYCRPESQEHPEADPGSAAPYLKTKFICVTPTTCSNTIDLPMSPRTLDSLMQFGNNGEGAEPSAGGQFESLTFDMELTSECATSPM

SMILES | DC50 [1] | DC50 [2]
Cn1c(=O)n(C2CCC(=O)NC2=O)c2ccc(CCCCc3cccc(OC[C@H](CCC(N)=O)NC(=O)[C@@H]4CC[C@@H]5CCCC[C@H](NC(=O)c6cc7cc(C(=O)P(=O)(O)O)ccc7[nH]6)C(=O)N54)c3Cl)cc21 (stereo partly drawn) [I-32] | > 1000 nM | –
CC(C)c1ccc(CNC(=O)[C@H](CCC(N)=O)NC(=O)[C@@H]2CC[C@@H]3CCN(C(=O)[C@H]4CC[C@@H](CCc5ccc6c(c5)n(C)c(=O)n6C5CCC(=O)NC5=O)CC4)C[C@H](NC(=O)c4cc5cc(C(=O)P(=O)(O)O)ccc5[nH]4)C(=O)N32)cc1Cl (stereo partly drawn) [I-33] | – | 10 to 100 nM
CC(C)c1ccc(CNC(=O)[C@H](CCC(N)=O)NC(=O)[C@@H]2CC[C@@H]3CCN(C(=O)[C@H]4CC[C@@H](CCc5ccc6c(c5)n(C)c(=O)n6C5CCC(=O)NC5=O)CC4)C[C@H](NC(=O)c4cc5cc(C(=O)P(=O)(O)O)ccc5[nH]4)C(=O)N32)c(F)c1 (stereo partly drawn) [I-34] | 10 to 100 nM | –
CC(C)c1ccc(CNC(=O)[C@H](CCC(N)=O)NC(=O)[C@@H]2CC[C@@H]3CCN(C(=O)[C@H]4CC[C@@H](CCc5ccc6c(c5)n(C)c(=O)n6C5CCC(=O)NC5=O)CC4)C[C@H](NC(=O)c4cc5cc(C(=O)P(=O)(O)O)ccc5[nH]4)C(=O)N32)c(Cl)c1 (stereo partly drawn) [I-35, 2-[[(5S,8S,10aR)-8-[[(1S)-3-Carbamoyl-1-[[(2-chloro-4-isopropylphenyl)methyl]carbamoyl]propyl]carbamoyl]-6-oxo-3-[(1r,4s)-4-[2-[1-(2,6-dioxopiperidin-3-yl)-3-methyl-2-oxo-1,3-benzodiazol-5-yl]ethyl]cyclohexanecarbonyl]-octahydropyrrolo[1,2-a][1,5]diazocin-5-yl]carbamoyl]-1H-indole-5-carbonylphosphonic acid] | 10 to 100 nM | –
Cc1ncsc1-c1ccc([C@H](C)NC(=O)[C@@H]2C[C@@H](O)CN2C(=O)[C@@H](NC(=O)CCCCCc2cccc(OC[C@H](CCC(N)=O)NC(=O)[C@@H]3CC[C@@H]4CCN(C(=O)C[C@H]5CC[C@@H](Cc6ccc7c(c6)n(C)c(=O)n7C6CCC(=O)NC6=O)CC5)C[C@H](NC(=O)c5cc6cc(C(=O)P(=O)(O)O)ccc6[nH]5)C(=O)N43)c2F)C(C)(C)C)cc1 (stereo partly drawn) [I-36] | 10 to 100 nM | –
Cn1c(=O)n(C2CCC(=O)NC2=O)c2ccc(CC[C@H]3CC[C@@H](C(=O)N4CC[C@H]5CC[C@@H](C(=O)N[C@@H](CCC(N)=O)c6nc7ccccc7s6)N5C(=O)[C@@H](NC(=O)c5cc6cc(C(=O)P(=O)(O)O)ccc6[nH]5)C4)CC3)cc21 (stereo partly drawn) [I-37] | 10 to 100 nM | –
Cn1c(=O)n(C2CCC(=O)NC2=O)c2ccc(C[C@H]3CC[C@@H](CC(=O)N4CC[C@H]5CC[C@@H](C(=O)N[C@@H](CCC(N)=O)C(=O)NC6(c7ccc(S(C)(=O)=O)cc7)CC6)N5C(=O)[C@@H](NC(=O)c5cc6cc(C(=O)P(=O)(O)O)ccc6[nH]5)C4)CC3)cc21 (stereo partly drawn) [I-38] | 100 to 1000 nM | –
Cn1c(=O)n(C2CCC(=O)NC2=O)c2ccc(CC[C@H]3CC[C@@H](C(=O)N4CC[C@H]5CC[C@@H](C(=O)N[C@@H](CCC(N)=O)c6ccccn6)N5C(=O)[C@@H](NC(=O)c5cc6cc(C(=O)P(=O)(O)O)ccc6[nH]5)C4)CC3)cc21 (stereo partly drawn) [I-39] | 10 to 100 nM | –
C[C@@H](NC(=O)[C@H](CCC(N)=O)NC(=O)[C@@H]1CC[C@@H]2CCN(C(=O)C[C@H]3CC[C@@H](Cc4ccc5c(c4)n(C)c(=O)n5C4CCC(=O)NC4=O)CC3)C[C@H](NC(=O)c3cc4cc(C(=O)P(=O)(O)O)ccc4[nH]3)C(=O)N21)c1ccc(S(C)(=O)=O)cc1 (stereo partly drawn) [I-40] | 100 to 1000 nM | –
C[C@H](NC(=O)[C@H](CCC(N)=O)NC(=O)[C@@H]1CC[C@@H]2CCN(C(=O)C[C@H]3CC[C@@H](Cc4ccc5c(c4)n(C)c(=O)n5C4CCC(=O)NC4=O)CC3)C[C@H](NC(=O)c3cc4cc(C(=O)P(=O)(O)O)ccc4[nH]3)C(=O)N21)c1ccc(S(C)(=O)=O)cc1 (stereo partly drawn) [I-41] | 100 to 1000 nM | –
CC(=O)N1CC[C@H]2CC[C@@H](C(=O)N[C@@H](CCC(N)=O)COc3cccc(CCCC(=O)N[C@H](C(=O)N4C[C@@H](O)C[C@H]4C(=O)N[C@@H](C)c4ccc(-c5scnc5C)cc4)C(C)(C)C)c3Cl)N2C(=O)[C@@H](NC(=O)c2cc3cc(C(=O)P(=O)(O)O)ccc3[nH]2)C1 [I-42] | > 1000 nM | –
CC(=O)N1CC[C@H]2CC[C@@H](C(=O)N[C@@H](CCC(N)=O)COc3cccc(CCCCC(=O)N[C@H](C(=O)N4C[C@@H](O)C[C@H]4C(=O)N[C@@H](C)c4ccc(-c5scnc5C)cc4)C(C)(C)C)c3Cl)N2C(=O)[C@@H](NC(=O)c2cc3cc(C(=O)P(=O)(O)O)ccc3[nH]2)C1 [I-43] | > 1000 nM | –
Cn1c(=O)n(C2CCC(=O)NC2=O)c2ccc(C[C@H]3CC[C@@H](CC(=O)N4CC[C@H]5CC[C@@H](C(=O)N[C@@H](CCC(N)=O)C(=O)NCc6ccc(S(C)(=O)=O)cc6F)N5C(=O)[C@@H](NC(=O)c5cc6cc(C(=O)P(=O)(O)O)ccc6[nH]5)C4)CC3)cc21 (stereo partly drawn) [I-44] | 10 to 100 nM | –
Cn1c(=O)n(C2CCC(=O)NC2=O)c2ccc(C[C@H]3CC[C@@H](CC(=O)N4CC[C@H]5CC[C@@H](C(=O)N[C@@H](CCC(N)=O)C(=O)NCc6ccc(S(C)(=O)=O)cc6Cl)N5C(=O)[C@@H](NC(=O)c5cc6cc(C(=O)P(=O)(O)O)ccc6[nH]5)C4)CC3)cc21 (stereo partly drawn) [I-45] | 10 to 100 nM | –
Cn1c(=O)n(C2CCC(=O)NC2=O)c2ccc(C[C@H]3CC[C@@H](CC(=O)N4CC[C@H]5CC[C@@H](C(=O)N[C@@H](CCC(N)=O)C(=O)NCc6ccc(S(C)(=O)=O)c(F)c6)N5C(=O)[C@@H](NC(=O)c5cc6cc(C(=O)P(=O)(O)O)ccc6[nH]5)C4)CC3)cc21 (stereo partly drawn) [I-46] | – | 10 to 100 nM
Cn1c(=O)n(C2CCC(=O)NC2=O)c2ccc(NC[C@H]3CC[C@H](C(=O)N4CC[C@H]5CC[C@@H](C(=O)N[C@@H](CCC(N)=O)C(=O)NCc6ccc(S(C)(=O)=O)cc6)N5C(=O)[C@@H](NC(=O)c5cc6cc(C(=O)P(=O)(O)O)ccc6[nH]5)C4)CC3)cc21 (stereo partly drawn) [I-47] | 10 to 100 nM | –
Cn1c(=O)n(C2CCC(=O)NC2=O)c2ccc(NC[C@H]3CC[C@@H](C(=O)N4CC[C@H]5CC[C@@H](C(=O)N[C@@H](CCC(N)=O)C(=O)NCc6ccc(S(C)(=O)=O)cc6)N5C(=O)[C@@H](NC(=O)c5cc6cc(C(=O)P(=O)(O)O)ccc6[nH]5)C4)CC3)cc21 (stereo partly drawn) [I-48] | 10 to 100 nM | –
C[C@H](CCC(N)=O)NC(=O)[C@@H]1Cc2cc(CCCCCCc3ccc4c(c3)n(C)c(=O)n4C3CCC(=O)NC3=O)cc3c2N1C(=O)[C@@H](NC(=O)c1cc2cc(C(=O)P(=O)(O)O)ccc2[nH]1)CC3 (stereo partly drawn) [I-49] | 10 to 100 nM | –
C[C@H](CCC(N)=O)NC(=O)[C@@H]1CC[C@@H]2CCN(C(=O)C[C@H]3CC[C@@H](Cc4ccc5c(c4)n(C)c(=O)n5C4CCC(=O)NC4=O)CC3)C[C@H](NC(=O)c3cc4cc(C(=O)P(=O)(O)O)ccc4[nH]3)C(=O)N21 (stereo partly drawn) [I-50] | 100 to 1000 nM | –
Cn1c(=O)n(C2CCC(=O)NC2=O)c2ccc(C[C@H]3CC[C@@H](CC(=O)N4CC[C@H]5CC[C@@H](C(=O)N[C@@H](CCC(N)=O)COc6cccc(S(C)(=O)=O)c6)N5C(=O)[C@@H](NC(=O)c5cc6cc(C(=O)P(=O)(O)O)ccc6[nH]5)C4)CC3)cc21 (stereo partly drawn) [I-51] | 10 to 100 nM | –
Cn1c(=O)n(C2CCC(=O)NC2=O)c2ccc(C[C@H]3CC[C@@H](CCN4CC[C@H]5CC[C@@H](C(=O)N[C@@H](CCC(N)=O)C(=O)NCc6ccc(S(C)(=O)=O)cc6)N5C(=O)[C@@H](NC(=O)c5cc6cc(C(=O)P(=O)(O)O)ccc6[nH]5)C4)CC3)cc21 (stereo partly drawn) [I-52, 2-[[(5S,8S,10aR)-8-[[(1S)-3-carbamoyl-1-[[(4-methanesulfonylphenyl)methyl]carbamoyl]propyl]carbamoyl]-6-oxo-3-[2-[(1s,4s)-4-[[1-(2,6-dioxopiperidin-3-yl)-3-methyl-2-oxo-1,3-benzodiazol-5-yl]methyl]cyclohexyl]ethyl]-octahydropyrrolo[1,2-a][1,5]diazocin-5-yl]carbamoyl]-1H-indole-5-carbonylphosphonic acid] | 100 to 1000 nM | –
Cc1ncsc1-c1ccc([C@H](C)NC(=O)[C@@H]2C[C@@H](O)CN2C(=O)[C@@H](NC(=O)CCCc2cccc(OC[C@H](CCC(N)=O)NC(=O)[C@@H]3CC[C@@H]4CCN(C(=O)C(C)C)C[C@H](NC(=O)c5cc6cc(C(=O)P(=O)(O)O)ccc6[nH]5)C(=O)N43)c2Cl)C(C)(C)C)cc1 [I-54] | < 10 nM | –
Cc1ncsc1-c1ccc([C@H](C)NC(=O)[C@@H]2C[C@@H](O)CN2C(=O)[C@@H](NC(=O)CC2CCC(c3cccc(OC[C@H](CCC(N)=O)NC(=O)[C@@H]4Cc5cccc6c5N4C(=O)[C@@H](NC(=O)c4cc5cc(C(=O)P(=O)(O)O)ccc5[nH]4)CC6)c3Cl)CC2)C(C)(C)C)cc1 (stereo partly drawn) [I-55] | 10 to 100 nM | –
Cc1ncsc1-c1ccc([C@H](C)NC(=O)[C@@H]2C[C@@H](O)CN2C(=O)[C@@H](NC(=O)CC2CCC(c3cccc(OC[C@H](CCC(N)=O)NC(=O)[C@@H]4Cc5cccc6c5N4C(=O)[C@@H](NC(=O)c4cc5cc(C(=O)P(=O)(O)O)ccc5[nH]4)CC6)c3Cl)CC2)C(C)(C)C)cc1 (stereo partly drawn) [I-56] | 100 to 1000 nM | –
